How the values were obtained:
[1] = tested on: auditory cell line (HEI-OC1); assay: WST-1 assay of cytotoxicity and cell viability; type: cell-based
Description: The effect of palmitate on cytotoxicity and cell viability of the auditory cell line (HEI-OC1) was quantitatively analyzed through a WST-1 assay.
In order to evaluate the function of atorvastatin against the cytotoxicity of palmitate, atorvastatin was pre-treated at each concentration and palmitate was post-treated at each concentration.
The cytotoxic and apoptotic effects of palmitate and the cytoprotective effect of atorvastatin were analyzed using a student's T-test for statistical significance through quantification.

[2] = tested on: HEI-OC1 cells; assay: PI staining and cell morphology analysis of apoptosis; type: cell-based; settings: HEI-OC1, 24 hours, 200 to 800 μM tested
Description: As a cell experiment model that replaces the diabetic mouse model through a high fat/fructose diet, that is, obesity, a cytotoxicity experiment model based on saturated fatty acid palmitate, which is an intermediate product of lipid synthesis that is excessively abundant during obesity, has been devised. HEI-OC1 (house-ear institute-organ of Corti 1), the auditory cell line conducting the major auditory function, was used, and the diabetes-mediated hearing loss cell line model was treated with palmitate.
In order to evaluate apoptosis, 24 hours after HEI-OC1 cells, the auditory cell line, were treated with 200 to 800 μM of palmitate, PI (propidium iodide) staining and the cell morphology thereof were analyzed. As a result, cell apoptosis was induced with a change in cell morphology from the palmitate concentration of 200 μM, and this phenomenon became more apparent as the concentration increased (FIG. 4 in part A).

[3] = tested on: auditory cell line (HEI-OC1); assay: TUNEL immunostaining quantified by fluorescence microscopy; type: cell-based; settings: HEI-OC1, combination of palmitate and atorvastatin
[4] = tested on: obese C57 mice; settings: Lipids in Health and Disease, 2014; cited from earlier work
[5] = tested on: breast cancer cell xenograft model; settings: Front. Med. China, 2009; cited from earlier work
[6] = tested on: cochlea of the diabetic mouse model; assay: H&E staining and immunohistochemistry (DHE, TUNEL) of cochlea of diabetic mouse model; type: in vivo, C57/BL6J male mice
Description: Damage to cochlear hair cells around the base and middle turn (16 kHz) region, fibrocytes of the lateral wall and spiral ganglion cells of the cochlea of the diabetic mouse model established in Example 1 was evaluated through H & E (hematoxylin and eosin) staining and immunohistochemistry.
Then, the auditory cells (cochlear hair cells) were observed through immunohistochemistry.
The spiral ganglion cells were analyzed by H & E staining.
Stria vascularis cells in the lateral wall in the cochlea (inner ear) were analyzed by H & E staining.

[7] = tested on: mouse model of age-related hearing loss; settings: Neuroscience Letters, 2007; cited from earlier work
[8] = tested on: auditory cell line (HEI-OC1); assay: ATP detection luminescence; type: cell-based; settings: total extract of cells, palmitate plus atorvastatin
Description: In addition, the effects of atorvastatin on the protection of cells and on energy metabolisms were evaluated using ATP detection luminescence.

[9] = tested on: noise-induced hearing loss rat model; settings: low dose, 5 mg/kg; Int J Occup Environ Med, 2016; cited from earlier work
[10] = tested on: auditory cell line (HEI-OC1); assay: DCFDA staining of reactive oxygen species; type: cell-based; settings: HEI-OC1, palmitate and atorvastatin
[11] = tested on: diabetic mouse model; assay: Body weight, blood glucose, glucose tolerance and insulin tolerance in diabetic mouse model; type: in vivo, C57/BL6J male mice; settings: 12-week diabetic mice, 20 mg/kg i.p. once every 2 days for 5 weeks, vs control group
Description: The diabetes-mediated hearing loss model was fed with 60% high fat/30% fructose water for 12 weeks and bred to induce diabetes. The diabetes model was established by measuring blood glucose levels, and testing glucose tolerance and insulin tolerance once every two weeks for 12 weeks, weighing weekly and conducting food/water intake efficiency tests twice weekly.
The experimental group was divided into an atorvastatin group (n=15, 20 mg/kg) and a control (vehicle) group (n=15, DMSO+normal saline) and intraperitoneal administration was conducted once every 2 days for 5 weeks. During the drug administration period, body weight and food intake efficiency tests were performed. Hearing tests, blood glucose measurement, and glucose and insulin tolerance tests were performed immediately before the end of the administration period.
In addition, body weight, blood glucose level, glucose tolerance and insulin tolerance were measured in the experimental group, obtained by administering atorvastatin to the 12-week diabetic mice, and in the control group. […] All statistical significance was analyzed using one-way ANOVA of SPSS program and student's T-tests.

[12] = tested on: HEI-OC1 cells; assay: Western blotting of cleaved caspase-3, PARP and AKT phosphorylation; type: cell-based
[13] = atorvastatin-administered diabetic mice

SMILES: CCCCCCCCCCCCCCCC(=O)O [palmitate]
- cytotoxicity (WST-1 cell viability assay) ([1]; 24 hours, palmitate at 100, 200 and 400 μM): 20 to 40%
- concentration from which cell apoptosis with change in cell morphology was induced [2]: ≥ 200 μM

SMILES: CC(C)c1c(C(=O)Nc2ccccc2)c(-c2ccccc2)c(-c2ccc(F)cc2)n1CC[C@@H](O)C[C@@H](O)CC(=O)O [atorvastatin]
- number of TUNEL-stained cells [3]: statistically decreased
- obesity-induced type 2 diabetes [4]: inhibits obesity-induced type 2 diabetes
- tumor growth and metastasis [5]: inhibit tumor growth and metastasis
- cytotoxicity, treatment only with atorvastatin ([1]; 250, 500 or 1,000 nM, HEI-OC1): cytotoxicity was not observed
- palmitate-induced apoptosis (WST-1 cell viability) ([1]; atorvastatin pre-treated, palmitate post-treated, 24 hours): significantly inhibited
- TUNEL expression in spiral ganglion cells [6, 13]: suppressed
- apoptosis (TUNEL) of stria vascularis cells [6, 13]: markedly suppressed
- enlargement of stria vascularis tissue of the lateral wall (H&E) [6, 13]: not observed
- reactive oxygen species in cochlear hair cells (DHE immunohistochemistry) [6, 13]: decreased reactive oxygen species, like normal mice
- spiral ganglion cell size and nucleus morphology (H&E) ([6]; atorvastatin-administered diabetic mice vs normal group): larger cell size than that of the normal group, but had no change in nucleus morphology
- morphology of cochlear hair cells (H&E) ([6]; diabetic mice administered with atorvastatin): no morphological changes
- hearing loss in age-related hearing loss model [7]: delaying or inhibiting hearing loss
- production of mitochondrial energy (ATP) [8]: maintained the production of mitochondrial energy (ATP)
- hearing loss in noise-induced model [9]: statistically significant effect of inhibiting hearing loss
- generation of reactive oxygen species (DCFDA) [10]: statistically significantly inhibit
- blood glucose level [11]: significantly improved
- body weight [11]: reduced
- glucose tolerance (GTT) [11]: significantly improved
- insulin tolerance (ITT) [11]: significantly improved
- phosphorylation of AKT after treatment with atorvastatin ([12]; HEI-OC1, by concentration and time): increased
- AKT protein phosphorylation under palmitate treatment ([12]; HEI-OC1, palmitate plus atorvastatin): inhibited the reduction of AKT protein phosphorylation
